This note sets out measurements from paper PMC11317440, “Soloxolone para-methylanilide effectively suppresses aggressive phenotype of glioblastoma cells including TGF-β1-induced glial-mesenchymal transition in vitro and inhibits growth of U87 glioblastoma xenografts in mice” (Frontiers in Pharmacology, 2024).

Molecules are shown by their SMILES.

The test system of one experiment is U118 glioblastoma cells. Nature of the experiment: MTT cell viability assay, U118 cells, 48 h. The format is cell-based. The conditions noted are these: Homo sapiens. Here is the method: Cells were seeded in quadruplicate in 96-well plates at 10,000 cells/well and allowed to adhere overnight. The medium was then replaced with serum-free DMEM containing increasing concentrations of soloxolone amides for 48 h. After incubation, 3-(4,5-dimethylthiazol-2-yl)-2,5-diphenyltetrazolium bromide (MTT dye) was added at a final concentration of 0.5 mg/mL and left for 2 h. The resulting formazan crystals were dissolved in DMSO and the optical density was measured at 570 nm using a Multiscan RC plate reader (Thermo LabSystems, Helsinki, Finland).

Experiment [1] relates to U87 glioblastoma xenograft. Nature of the experiment: U87 glioblastoma xenograft model. The format is in vivo, athymic nude mice. The settings on record: 7 20 mg/kg i.p. The protocol:
A xenograft model of tumor progression was induced by subcutaneous (s.c.) implantation of U87 glioblastoma cells (2×10^7 cells/mL) suspended in 0.1 mL of saline buffer into the left flank of athymic nude mice. On day 4 after tumor transplantation, the mice were divided into four groups: (1) mice received intraperitoneal (i.p.) injections of 10% Tween-80 (vehicle) (n = 6); (2) mice received i.p. injections of compound 7 in 10% Tween-80 at a dose of 20 mg/kg (n = 5); (3) mice received i.p. injections of TMZ in saline buffer at a dose of 10 mg/kg (n = 5); (4) mice received combination therapy of compound 7 and TMZ at the same dosage and administration route (n = 6). Compound 7 was administered three times per week; in total seven injections were performed. TMZ was administered daily except weekends; in total eleven injections were performed. During the experiment, the tumor volumes were determined three times per week using caliper measurements and were calculated as V = (D × d^2)/2, where D is the longest diameter of the tumor node and d is the shortest diameter of the tumor node perpendicular to D. Mice were sacrificed on day 19 after tumor transplantation and material (tumor nodes, livers, and kidneys) was collected for subsequent analysis.

Experiment [2] relates to N-cadherin, fibronectin, Slug, OLIG2 expression in TGF-β1-induced U87 cells. Description: qRT-PCR of GMT markers in U87 cells. The experiment is classed as cell-based, human. The settings on record: 48 h. The protocol: Total RNA was extracted using TRIzol Reagent (Ambion, Austin, TX, USA) according to the manufacturer’s protocol. Subsequently, the first strand cDNA was synthesized from 4 μg of total RNA using an oligo (dT)18 primers and M-MuLV-RH revertase (Biolabmix, Novosibirsk, Russia). Finally, RT-qPCR was performed using specific primers (Table 1) and BioMaster SYBR Blue reagent kit (Biolabmix, Novosibirsk, Russia). Relative expression was determined by normalization to the housekeeping gene HPRT using the 2^−ΔΔCT method (Livak and Schmittgen 2001).
For orientation: Quantitative PCR measures a nucleic acid by following its amplification.

The subject of a further experiment is SMAD2/3. Nature of the experiment: SMAD2/3 nuclear translocation (immunofluorescence), U87 cells. The conditions noted are these: U87, 7 50 nM pretreatment 48 h, TGF-β1 50 ng/mL 1 h. The format is cell-based, human. The protocol: U87 cells (150,000 cells/well) were allowed to attach to glass coverslips in 24-well plates prior to 48-h incubation with compound 7 (50 nM) under serum-free conditions, followed by stimulation with TGF-β1 (50 ng/mL) for 1 h. After fixation in 4% formaldehyde for 20 min, cells were incubated with primary antibodies against Smad2/3 (1:100, ab202445) for 1 h under permeabilizing conditions (0.1% Triton X100, 5 mg/mL BSA, 37°C) and Alexa Fluor 488-conjugated secondary antibodies (1:500, ab150077) for 1 h in the dark. Finally, nuclei were stained with DAPI (1 μg/mL) for 10 min and cells were mounted on glass slides with Fluoromount-G (Thermo Fisher Scientific, Rockford, IL, USA). Images were captured using a LSM710 confocal microscope (Zeiss, Oberkochen, Germany) at ×40 magnification. Nuclear translocation was quantified by measuring the ratio of nuclear to perinuclear intensity of Alexa Fluor 488 in CellProfiler software (Broad Institute, Cambridge, MA, USA) for 50 cells per experimental group (n = 3).

For the next experiment, the system named is U87 cells. Nature of the experiment: Annexin V-FITC/propidium iodide flow cytometry, U87, 48 h. The experiment is classed as cell-based, human. Here is the method:
To observe apoptosis and necrosis, U87 and U118 cells were stained with Annexin V-FITC and propidium iodide (ab14085; Abcam, Inc., Cambridge, MA, USA) after 48 h of incubation with compound 7 (0–2000 nM) according to the manufacturer’s protocol (n = 3). To quantify the total proportion of apoptotic cells in control and experimental groups, the events accumulated in the lower right quadrant (early apoptosis) and upper right quadrant (late apoptosis) were summarized.
After staining, 10,000 cells per sample were analyzed on a NovoCyte flow cytometer using NovoExpress software (ACEA Biosciences, Inc., USA).
(A flow cytometer gives signals particle by particle.)

The test system of another experiment is TGF-β1-treated U87 cells. Description: Adhesion of U87 cells to culture plastic (TrypLE treatment assay). The experiment is classed as cell-based, human. The conditions noted are these: TGF-β1 50 ng/mL, non-toxic concentrations, 48 h. Here is the method:
Adhesiveness of glioblastoma cells was assessed by two independent methods. First, cell adhesion to culture plastic was tested using a trypsin treatment assay, as previously described ([Sava et al., 2004]; [Mazuryk et al., 2015]; [van Dijk et al., 2017]). Briefly, U87 and U118 cells (10,000 cells per well of a 96-well plate, n = 4) were cultured with TGF-β1 (50 ng/mL) and non-toxic concentrations of soloxolone amides for 48 h and then treated with a 1:20 dilution of TrypLE Express (Gibco, USA) in PBS for 3 min at 37°C. Non-adherent cells were then removed by a triple PBS wash, and the remaining adherent cells were fixed with 4% formaldehyde and stained with crystal violet dye (0.1% w/v). Images were captured using the iBright 1,500 Imaging System (Invitrogen, USA), and the cell-occupied area was calculated using ImageJ. Alternatively, the number of adherent cells was quantified using the MTT assay.

In general, IC50 refers to the midpoint of a concentration-inhibition curve. A low value points to greater potency in that assay. Take `Cc1ccc(NC(=O)[C@@]2(C)CC[C@]3(C)CC[C@]4(C)[C@H](C(=O)C=C5[C@@]6(C)C=C(C#N)C(=O)C(C)(C)C6CC[C@]54C)[C@@H]3C2)cc1` (stereo partly drawn) [compound 7, N-p-tolyl-2-cyano-3,12-dioxo-18βH-olean-9(11),1(2)-dien-30-amide]: half-maximal inhibition with U118 glioblastoma cells (IC50) required 310 nM. Further, the “reduction in tumor volume compared to the vehicle group” value is given as 2.1 fold in experiment [1] (day 11); 3.2 fold in experiment [1] (day 13); 6.6 fold in experiment [1] (day 15, TMZ 10 mg/kg i.p.); 7.2 fold in experiment [1] (day 18, TMZ 10 mg/kg i.p.). Besides, the “reduction in tumor weight compared to the vehicle” value in experiment [1] (end of the experiment (day 19), TMZ 10 mg/kg i.p.) came out at 8 fold. In addition, the “upregulation of OLIG2” value in experiment [2] (TGF-β1-induced U87 cells, 7 50 nM) worked out at 2 fold. For the same compound, the “reduction of N-cadherin expression compared to TGF-β1-stimulated cells” value in experiment [2] (U87, 7 50 nM, TGF-β1 50 ng/mL) amounted to 67.6%. In addition, in experiment [2] (U87, 7 50 nM, TGF-β1 50 ng/mL), the “reduction of Slug expression compared to TGF-β1-stimulated cells” value is recorded as 35.8%. For the same compound, the “reduction of fibronectin expression compared to TGF-β1-stimulated cells” value in experiment [2] (U87, 7 50 nM, TGF-β1 50 ng/mL) stood at 39.2%. The “reduction of nuclear-cytoplasmic ratio of SMAD2/3” value in the experiment on SMAD2/3 was 52%. In addition, the “percentage of cells in the right quadrants (apoptosis)” value worked out at 3.7% in the experiment with U87 cells (U87, 7 450 nM); 40% in the experiment with U87 cells (U87, 7 1,000 nM); 83.3% in the experiment on U87 cells (U87, 7 2000 nM). The “necrosis (upper left quadrant)” value is on record as 23.4% in the experiment on U87 cells (U87, 7 1,000 nM) and 14.8% with U87 cells (U87, 7 2000 nM). Moreover, the “adhesion of TGF-β1-treated U87 cells to culture plastic (MTT readout)” value with TGF-β1-treated U87 cells is recorded as “one of the most pronounced pro-adhesive effects”. For the same compound, in the experiment with TGF-β1-treated U87 cells, the “adhesion of TGF-β1-treated U87 cells to culture plastic (crystal violet)” value is listed as “restoring it to control levels”.
